Where a name gives a salt, the structure may show the parent alone. ± gives the standard error.
Columns and labels:
[1] = test system: 621-102 (TSC2-deficient); assay: relative viability vs DMSO; higher = less cytotoxic; conditions: serum: 10% FBS, 72 h
[2] = test system: 621-103 (TSC2-rescued); assay: as above; conditions: serum: 10% FBS, 72 h
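Also: immortalized renal angiomyolipoma cells stably carrying empty vector or TSC2, dosed in 384-well plates in DMEM, viability normalized to vehicle-treated wells within each plate.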

Structure (SMILES)	relative viability ([1]; 0.0001 µM)	relative viability ([1]; 0.001 µM)	relative viability ([1]; 0.01 µM)	relative viability ([1]; 0.1 µM)	relative viability ([1]; 1 µM)	relative viability ([1]; 10 µM)	relative viability ([2]; 0.0001 µM)	relative viability ([2]; 0.001 µM)	relative viability ([2]; 0.01 µM)	relative viability ([2]; 0.1 µM)	relative viability ([2]; 1 µM)	relative viability ([2]; 10 µM)
COc1cc([C@@H]2c3cc4c(cc3[C@@H](O[C@@H]3O[C@@H]5CO[C@@H](C)O[C@H]5[C@H](O)[C@H]3O)[C@H]3COC(=O)[C@H]23)OCO4)cc(OC)c1O [Etoposide (Etopophos)]	109.8 ± 0.44%	108.1 ± 0.98%	114 ± 3.7%	104 ± 2.5%	81.3 ± 5.1%	54.6 ± 2.9%	99.77 ± 0.28%	98.19 ± 0.16%	99.6 ± 1.2%	98.7 ± 1%	91.5 ± 2.3%	55.6 ± 0.8%
CN1CC(=O)N2[C@H](c3ccc4c(c3)OCO4)c3[nH]c4ccccc4c3C[C@@H]2C1=O [Tadalafil (Cialis)]	107.45 ± 0.0089%	97.8 ± 3.3%	107 ± 4.8%	101 ± 2%	94.3 ± 2.4%	107.7 ± 0.44%	91.2 ± 1.9%	92.87 ± 0.31%	102.7 ± 0.92%	92.11 ± 0.35%	96.51 ± 0.38%	101 ± 2%
COc1cc2c(cc1O)CC[C@@H]1[C@@H]2CC[C@]2(C)[C@@H](O)CC[C@@H]12 [2-Methoxyestradiol]	121 ± 1.9%	118 ± 3.8%	112 ± 2.2%	107 ± 3.3%	80 ± 2.5%	39.8 ± 1.9%	107 ± 2.6%	103.2 ± 0.73%	98.66 ± 0.82%	98.8 ± 2%	82.5 ± 3.2%	53.7 ± 0.91%
Cn1cc(/C=C/C(=O)c2cccc(F)c2)cc1/C=C/C(=O)NO [MC1568]	109.3 ± 0.42%	106.9 ± 0.32%	103 ± 7.3%	104 ± 2.1%	98.5 ± 4.7%	102.6 ± 0.25%	99.97 ± 0.52%	98 ± 1%	99.34 ± 0.99%	98.5 ± 1.1%	100 ± 1.3%	101 ± 1.5%
Oc1nc(-c2ccc(C(F)(F)F)cc2)nc2c1CSCC2 [XAV-939]	116 ± 0.67%	112 ± 2.7%	116 ± 5.5%	120 ± 1.9%	119.9 ± 0.91%	102.42 ± 0.045%	99.56 ± 0.24%	104 ± 2.7%	102 ± 2.3%	102 ± 2%	102 ± 1.7%	102 ± 1.7%
COc1cccc2c1C(=O)c1c(O)c3c(c(O)c1C2=O)C[C@@](O)(C(=O)CO)C[C@@H]3O[C@H]1C[C@H](N)[C@H](O)[C@H](C)O1 [Adriamycin]	102 ± 2%	93.5 ± 5.5%	71.1 ± 1.7%	65.1 ± 2.7%	17.4 ± 2.1%	5.59 ± 0.56%	102.4 ± 0.79%	103 ± 1.9%	87.9 ± 3.1%	60.3 ± 1.4%	13.01 ± 0.075%	12 ± 0.24%
N#CC(=C(/N)Sc1ccccc1N)/C(C#N)=C(\N)Sc1ccccc1N [U0126-EtOH]	105 ± 3.4%	103 ± 1.3%	103 ± 2.5%	103 ± 1.1%	99.47 ± 0.83%	93.3 ± 4.4%	105 ± 2.4%	101 ± 1.1%	99.9 ± 1.5%	101 ± 2%	100.6 ± 0.44%	90.4 ± 1.6%
COc1cccc2cc(-c3nc([C@H]4CC[C@H](C(=O)O)CC4)n4ncnc(N)c34)[nH]c12 [OSI-027]	79.6 ± 8.2%	88.5 ± 5.6%	91.5 ± 7%	90 ± 1.8%	77.9 ± 2.4%	25.2 ± 0.58%	105 ± 2.6%	101.3 ± 0.67%	100.8 ± 0.85%	94.6 ± 4.2%	81.7 ± 4.1%	32.3 ± 0.85%
O=c1[nH]c2ccccc2n1CCCN1CCC(n2c(=O)[nH]c3cc(Cl)ccc32)CC1 [Domperidone (Motilium)]	102.7 ± 0.59%	96 ± 10%	95.3 ± 3.6%	106 ± 1.3%	98.8 ± 1.5%	90.8 ± 2.7%	99.17 ± 0.87%	93.61 ± 0.19%	103.3 ± 0.16%	110 ± 2%	101.1 ± 0.98%	96.7 ± 2%
O=C(c1cc(Cc2n[nH]c(=O)c3ccccc23)ccc1F)N1CCN(C(=O)C2CC2)CC1 [AZD2281 (Olaparib)]	120 ± 2.1%	129 ± 5.5%	125 ± 5.6%	120 ± 2.8%	114.2 ± 0.69%	81.75 ± 0.48%	104 ± 1.5%	103 ± 1.7%	104.6 ± 0.91%	99.6 ± 3.1%	104 ± 1.5%	98.4 ± 4.5%
CC(=O)Nc1nc(C)c(-c2ccc(Cl)c(S(=O)(=O)NCCO)c2)s1 [PIK-93]	94.69 ± 0.6%	106 ± 2.8%	115 ± 0.89%	112 ± 3.2%	113.97 ± 0.11%	82.8 ± 0.53%	102.7 ± 0.19%	102 ± 1.3%	98.7 ± 1.2%	100.8 ± 1%	102 ± 1.7%	74.3 ± 1.8%
Cc1ccc(C(=O)N(CCCN)[C@@H](c2oc3cc(Cl)ccc3c(=O)c2Cc2ccccc2)C(C)C)cc1	61.7 ± 2.2%	67.7 ± 4.4%	75.95 ± 0.11%	69.9 ± 1.3%	80.2 ± 2.9%	1.36 ± 0.19%	40.45 ± 0.2%	46.1 ± 0.55%	59.1 ± 2%	50.6 ± 1.8%	47.3 ± 5.6%	1.36 ± 0.14%
FC(F)(F)c1ccc(Nc2nc3ccc(Oc4ccnc(-c5ncc(C(F)(F)F)[nH]5)c4)cc3[nH]2)cc1 [Raf265 derivative]	113.2 ± 0.3%	94.5 ± 1.8%	106.8 ± 0.2%	112 ± 4.1%	102 ± 6.6%	72.52 ± 0.56%	110 ± 2.7%	108 ± 6.7%	94.7 ± 5%	103 ± 5.7%	101 ± 4.6%	73.2 ± 7%
CC(C)(C)c1[nH]cnc1/C=c1\[nH]c(=O)/c(=C/c2ccccc2)[nH]c1=O [NPI-2358]	88.4 ± 2.1%	50.4 ± 2%	55.9 ± 1.8%	42 ± 0.5%	36.5 ± 2%	41.3 ± 2.3%	86.9 ± 4.1%	45.4 ± 0.88%	62 ± 1.6%	36.2 ± 0.99%	32.4 ± 0.92%	33.1 ± 0.41%
CNC(=O)CN1CCC(Oc2cc3c(Nc4cccc(Cl)c4F)ncnc3cc2OC)CC1 [AZD8931]	106 ± 2.5%	104 ± 3%	98.4 ± 2%	96.61 ± 0.73%	99.6 ± 2.1%	93.4 ± 4.9%	102 ± 1.5%	99.7 ± 2.3%	101 ± 2.6%	100.3 ± 0.18%	99 ± 1.7%	83.2 ± 3.3%
OC(CN1CCN(c2cccc(Cl)c2)CC1)C(c1ccccc1)c1ccccc1 (stereo not drawn)	102 ± 4.7%	93.4 ± 2.8%	104 ± 2.5%	95.9 ± 2.9%	102 ± 2.5%	89.25 ± 0.44%	83.9 ± 10%	85.7 ± 8.3%	95.1 ± 7.2%	98.58 ± 0.47%	83.3 ± 4.9%	79.1 ± 4.4%
Nc1cccc2c1CN(C1CCC(=O)NC1=O)C2=O (stereo not drawn) [Lenalidomide]	107 ± 2.9%	115 ± 1.9%	113 ± 3%	112 ± 2.1%	109 ± 4.8%	98.472 ± 0.068%	101 ± 1.6%	98.8 ± 1%	100 ± 1.1%	100.4 ± 0.81%	100.5 ± 0.13%	98.62 ± 0.12%
CCCCN1CCCCC1C(=O)Nc1c(C)cccc1C (stereo not drawn) [Bupivacaine HCl (marcain)]	97.4 ± 2.2%	104 ± 4.4%	93.47 ± 0.53%	93.5 ± 1.1%	94.1 ± 1.3%	100 ± 2.3%	89.4 ± 2.3%	102 ± 4.2%	98.8 ± 1.7%	104 ± 4.7%	94.37 ± 0.47%	98.415 ± 0.003%
Cc1ccc(NC(=O)c2ccc(CN3CCN(C)CC3)cc2)cc1Nc1nccc(-c2cccnc2)n1 [Imatinib (STI571)]	85.09 ± 0.54%	107 ± 2.1%	99 ± 3.4%	109 ± 3.3%	108 ± 2.7%	95.35 ± 0.94%	94.6 ± 4.2%	97.664 ± 0.066%	101 ± 0.77%	101 ± 2%	94.4 ± 3.7%	96.9 ± 4.7%

— the supplement of paper PMC8960247
